Data on three molecules can be found in US12472269B2, “Liver-specific inducible promoters and methods of use thereof” (ASKBIO INC., priority 2019, dated 2025).

The subject of one data set is Huh7 cells. In words: EPO expression (ELISA of medium) from PB1-MinTK in Huh7 cells with CAR-containing plasmid, induction by CITCO. It counts as cell-based, human. The source says: • Huh7 cells which are a human liver cell line • DPBS: without CaCl2, without MgCl2 (Gibco, 14190-094) • DMEM (Sigma, D6546) • FBS (Sigma, F9665) • Pen-Strep (Sigma, P4333) • Promega Fugene-HD (E2311) • TCPOBOP (Sigma, T2320) • CITCO (Cayman Chemicals Company, 16027) • pcDNA6 plasmid which contains the β-galactosidase gene used as internal control for transfection efficiency (Thermofisher, V22020) • mouse CAR expression plasmid from Jouan et al, 2016 (BioCat GmbH, EX-Z4288-M51-10-GC). This was used as Huh7 is CAR deficient. • β-galactosidase substrate solution (Thermofisher, 75707/75710) • Pierce BCA kit (23225) • LARII (Dual Luciferase Reporter 1000 assay system, Promega, E1980) • EPO ELISA kit (Abcam, ab119522) Method: Day 1 • Cells were seeded onto a 48 well plate at a density of 25,000 cells/300 μl Day 2 • On the day of transfection, DNA to be transfected (CAR plasmid/PB1-MinTK operably linked with luciferase or EPO/pcDNA6 plasmid for internal control) was diluted to a 100 ng/μl stock solution. Per 48 Well Transfection: • 45 ng of DNA (15 ng of each plasmid, pcDNA6, CAR and test plasmid) was mixed with 4.1 μl of Optimem medium. • 0.5 μl of Fusion HD was mixed with 4 μl of Optimem medium. • These 2 solutions were mixed and incubated at room temperature for 15 minutes. • The final solution was then added to the well drop wise. • 3 hrs after transfection, the inducer TCPOBOP was added to the appropriate wells at the indicated concentration. Day 3 • 24 hrs after induction the media was removed from the cells. • The cells were washed once in 300 μl of DPBS • Cells were lysed using 100 μl of passive lysis buffer and incubation with rocking for 15 minutes • The cell debris was pelleted by centrifugation of the plate at max speed in a benchtop centrifuge for 1 min • For luciferase, 10 μl sample was transferred into white 96-well plate and luminescence measured by injection of 50 μl of LARII substrate. • β-galactosidase activity was measured as per manufacturer's instructions (Mammalian β-Galactosidase Assay Kit, 75707/75710, Thermo Scientific) using 25 μl of lysate. 25 μl of lysate was transferred into a microplate well and mixed with 25 μl of β-galactosidase Assay Reagent, equilibrated to room temperature. The mixture was incubated at 37° C. for 30 min and absorbance measured at 405 nm. • Protein concentration was measured as per manufacturer's instructions (Pierce™ BCA Protein Assay Kit, 23225/23227, Thermo Scientific) using 25 μl of lysate. 25 μl of lysate was transferred into a microplate well and mixed with 200 μl of working solution. The mixture was incubated at 37° C. for 30 min, cooled to room temperature and then absorbance measured around 562 nm. The protein concentration was calculated with respect to protein standard curve prepared from assaying standards with known protein concentration.
Transfections with PB1-MinTk-EPO were performed as described above with the exception that EPO is secreted into the medium. Therefore, medium was collected, and EPO concentration measured as per manufacturer's instructions (ab119522 Erythropoietin (EPO) Human ELISA Kit, Abcam) using an ELISA assay. 50 μl of medium was transferred to a pre-washed microplate wells and mixed with 50 μl of 1× Biotin Conjugated Antibody. The mixture was incubated at room temperature for 1 hour. The wells were washed, 100 μl of Streptavadin-HRP was added and the plate was incubated at room temperature for 15 minutes. The wells were washed and then 100 μl of TMB Substrate Solution. The mixture was incubated at room temperature for 10 minutes. The enzyme reaction was stopped by addition of 100 μl of Stop Solution and absorbance was read at 450 nm. The EPO concentration was calculated with respect to EPO standard curve prepared from assaying standards with known EPO concentration.
The PB1-MinkTK promoter was then used to drive expression of the protein EPO, which is of therapeutic interest. […]

In another data set the test system is AXOL ARE-hepatocytes. As to the kind of experiment: Luciferase expression from PBREM promoters in AXOL ARE-hepatocytes, induction by CITCO. It counts as cell-based, human. The conditions noted are these: 1 μM CITCO, readout 24 hrs after induction. The source says:
Axol Assay-Ready Expanded (ARE) Hepatocytes are primary human hepatocytes that have been expanded in vitro. Large batch sizes (up to 2000 vials) are available, ensuring a reliable, ready-to-use and consistent source of primary hepatocytes. ARE Hepatocytes express CYP enzymes, are metabolically functional, are polarized and can be infected by the Hepatitis C virus. AXOL ARE-hepatocytes express CAR negating the need to transfect with a CAR-expressing plasmid.
• AXOL assay-ready expanded (ARE) hepatocytes (Axol, ax3701) • ARE hepatocyte thawing medium (Axol, ax3705) • ARE maintenance medium (Axol, ax3710) • Virimer red transfection reagent (Lipocalyx, VR04-02-15) • CITCO, lucifierase, β-galactosidase and BCA kits as described above
ARE hepatocytes were cultured and transfected as described in the manufacturer's manual. 200,000 cells were seeded in 2 ml culture medium in collagen-coated 6 well plate. The cells were incubated for 4 h at 37° C. and 5% CO2 for sufficient adhesion. 200 μl of transfection mixture containing the DNA to be transfected (PB1-MinTK/PB1-CMV/PB1-SV40 operably linked with luciferase and β-galactosidase containing promoter) was added and the cells were incubated on an orbital shaker at 100 rpm for three hours at 37° C. and 5% CO2. 3 hrs after transfection CITCO was added to the appropriate wells. Cells were incubated under static conditions at 37° C. and 5% CO2 overnight and in the morning the medium was replaced with fresh ARE Hepatocyte Maintenance Medium. Readout was 24 hrs after induction. […]

The test system of a further data set is CD1 male mice. In words: In vivo bioluminescence imaging of mice injected with AAV9 constructs, induction by phenobarbital. Conditions: AAV9 via tail vein. The method, then: • Seed HEK 293-AAV cells in 15 cm plates. To be 70-80% confluent on the day of transfection • Final volume on each plate: 15 ml Day 2: Prepare Transfection Mix: • DNA mix/plate: pDG9 (Packaging plasmid for AAV9): 10.5 μg/pHGTI (Ad. Helper plasmid): 31.5 μg/Vector plasmid: 10.5 μg/Prepare in serum free DMEM/Optimem • Transfer mix/plate: PEI: 125 μl/Prepare in serum free DMEM/Optimem • Add DNA mix into transfection mix. Mix and leave at room temperature for 15-20 mins. • Add 3 ml of transfection mix to each plate drop-wise and gently distribute. Incubate for 24 h. Day 3: • Replace media with 15 ml DMEM supplemented with P/S and 2% FCS. Leave for 48 h. Day 5: • Collect supernatant and pool in 50 ml tubes, 25 ml each tube. Store at −20° C. • Collect cells: Add 5 ml of PBS to each plate→scrape and collect in 50 ml tubes. • To wash plates, add another 1 ml of PBS and collect. • Spin at 1500 rpm for 5 mins. • Remove supernatant and resuspend pelleted cells in 1 ml/plate TD lysis buffer→pool • Store at −80′C. Endonuclease Treatment Cells: • Freeze and thaw pellets 5 times→˜20 mins at 37° C. then ˜20 mins in dry ice (or −80° C.). • Add 25 μl/ml cells of 20% Deoxycholate (or 50 μl/ml of 10% Deoxycholate). • Add 8 μl/ml cells of benzonase. • Incubate at 37° C. for 30 mins. • Spin at 4 Krpm for 30 mins. • Filter supernatant using […] filters. • Store at 4° C. for up to 24 h. Supernatant: • Add 2.5 μl/25 ml supernatant of benzonase. • Add 50 μl/25 ml supernatant of MgSO4. • Incubate at 37° C. for 30 mins. • Spin at 4 Krpm for 30 mins. • Filter supernatant using […] filters. • Store at 4′C for up to 24 h. Hplc Purification • Place both lines in 20% ETOH→template→system wash • Put line A in PBS and line B in Glycine→template→system wash • Place the column in the machine→manual run→flowrate: 5 ml/min→Run for 25 ml or until the UV line is flat. • Prepare FACS tubes (10 for cells and more for supernatant): add 30 μl/tube Tris→put in the machine to collect vectors. • Place the waste lines in a separate tube to be able to run them again through the column. • Run samples (flowrate low, depending on how fast the system and how concentrated the sample is; for cells it is slower, for supernatant it is higher). • After running the waste through the column, wash with PBS→flowrate: 5 ml/min until the UV line is flat. • Set→fraction size: 1 ml; Flowrate: 1 ml/min; concentration % B: 100%→run. • Start collecting: Look for the peak. The peak indicates vector purification. Mark the tubes containing these vectors. • Save programme before exiting. • Wash with PBS→75 ml, 5 ml/min • Wash with Na3PO4 (to store the column in)→75 ml, 5 ml/min • Remove column and store at 4° C. • Wash the machine with PBS→template→system wash • Wash the machine with 20% ETOH→template→system wash • Put both lines in 20% ETOH and shut down • Add 2 L of PBS into a big bucket and put the Dialysis cassette (Side-A-Lyzer; Thermo scientific) to prime. • Collect the vectors from the marked FACS tubes using a syringe and needle and add into the dialysis cassette→remove excess air from the membrane, carefully place the rubber on top of the cassette and let it float in the PBS-containing bucket→leave over night at room temperature on a slow rotating rotor. Next Day: • Prime membrane by adding 5 ml PBS onto a centrifugal filter (Amico Ultra 15; MERCK)→spin for 5 mins at 4 Krpm • Remove excess PBS from inside the membrane. • Take vectors out from the cassette and load onto the membrane→spin for 5 mins at 4 Krpm • Wash the membrane with the vectors inside few times, then collect into 2 ml centrifuge tube filter 0.22 μM (Spin-X; COSTAR) • Spin for 3 mins at 13 Krpm. • Remove filter and aliquot: 1×100 μl (for injection), the rest in 10-2 μl aliquots. • Store in −80° C. • Virus quantification was performed using qRT-PCR with primers and probes for the luciferase gene. Mice Experiment […]

As to “CMV-MP: CMV minimal promoter driving EPO in pGL4.10, SEQ ID NO: 54 [reference compound]”, the “change of EPO expression on addition of CITCO” value in the data set with Huh7 cells (0.5 μM, 1 μM, 2 μM and 3 μM CITCO) was “does not change the EPO expression”.
As for `Clc1ccc(-c2nc3sccn3c2C=NOCc2ccc(Cl)c(Cl)c2)cc1` [CITCO, 6-(4Chlorophenyl)imidazo[2,1-b][1,3]thiazole-5-carbaldehyde-O-(3,4-dichlorobenzyl)oxime, reference compound], the “strength as inducer of CAR activity” value in the data set with Huh7 cells (22% vs 40% of CMV-IE with PB1-MinTK) is on record as “weaker inducer of CAR activity than TCPOBOP”.

B1: CMV-IE: strong viral CMV-IE comparative promoter, SEQ ID NO: 52 (nucleic acid)
DNA: GACATTGATTATTGACTAGTTATTAATAGTAATCAATTACGGGGTCATTAGTTCATAGCCCATATATGGAGTTCCGCGTTACATAACTTACGGTAAATGGCCCGCCTGGCTGACCGCCCAACGACCCCCGCCCATTGACGTCAATAATGACGTATGTTCCCATAGTAACGCCAATAGGGACTTTCCATTGACGTCAATGGGTGGAGTATTTACGGTAAACTGCCCACTTGGCAGTACATCAAGTGTATCATATGCCAAGTACGCCCCCTATTGACGTCAATGACGGTAAATGGCCCGCCTGGCATTATGCCCAGTACATGACCTTATGGGACTTTCCTACTTGGCAGTACATCTACGTATTAGTCATCGCTATTACCATGGTGATGCGGTTTTGGCAGTACATCAATGGGCGTGGATAGCGGTTTGACTCACGGGGATTTCCAAGTCTCCACCCCATTGACGTCAATGGGAGTTTGTTTTGGCACCAAAATCAACGGGACTTTCCAAAATGTCGTAACAACTCCGCCCCATTGACGCAAATGGGCGGTAGGCGTGTACGGTGGGAGGTCTATATAAGCAGAGCT
modifications: CMV-IE comparative promoter
As for B1, the “induction of luciferase expression” value in the data set with AXOL ARE-hepatocytes was ~2 fold. Further, the “tissue distribution of luciferase expression” value in the data set with CD1 male mice is on record as “expressing in almost all tissues of the mouse”.
